Test: Storage stability testing of the syrup at ICH conditions, HPLC assay of ribavirin and degradation products
Type: physicochemical
Description: The stability of a syrup formulation of the present invention was compared to conventional liquid formulations that contain ribavirin that are marketed by ICN. Degradation of syrup formulations containing ribavirin is observed during storage stability testing, as is evidenced by declining concentrations of the active ingredient and a concomitant formation of degradates. The most frequent degradation product that has been identified is the carboxylic acid product of ribavirin. Based upon these tests, it is believed that the syrup formulations of the present invention have a shelf life of greater than two years.
This analysis was performed via HPLC methods that are known to one of skill in the art. Stability data was also performed on the formulation of the present invention at 18 months after formulation, and measured by HPLC techniques as known by one of skill in the art as set forth in Table 2 below.
Only results that exceed the limit of quantitation (LOQ) were included in the attached tables. The LOQ of each degradation product is 0.05%. Synthesis-related impurities of ribavirin, the α-anomer and 5′-acetylribavirin, were not degradation products and are not monitored in the drug product. Each degradation product result was rounded to one significant figure according to the rounding convention described in the USP. The results for total degradation products that were derived from the sum of individual degradation products that contain one more significant figure than those shown in the data tables and then rounded to one decimal place.

ribavirin degradation after storage (25° C./60% RH, up to 12 months): did not degrade significantly
ribavirin degradation after storage (30° C./60% RH, up to 12 months): did not degrade significantly
ribavirin degradation after storage (ICH accelerated condition 40° C./75% RH, up to 6 months): did not degrade significantly
Compound: NC(=O)c1ncn([C@@H]2O[C@H](CO)[C@@H](O)[C@H]2O)n1 [Ribavirin, 1β-D ribofuranosyl-1H-1,2,4 triazole 3-carboxamide]

— patent publication US20030087844A1, “Ribavirin syrup formulations” (SCHERING CORPORATION, priority 2001, published 2003)
